# Laboratory results taken from ChEMBL document CHEMBL1150977, “A quantitative analysis of kinase inhibitor selectivity” (Nat Biotechnol, 2008).
# Biological target: T1, Serine/threonine-protein kinase tousled-like 1 (Homo sapiens, UniProt Q9UKI8)
# T1 sequence (Q9UKI8 whole entry): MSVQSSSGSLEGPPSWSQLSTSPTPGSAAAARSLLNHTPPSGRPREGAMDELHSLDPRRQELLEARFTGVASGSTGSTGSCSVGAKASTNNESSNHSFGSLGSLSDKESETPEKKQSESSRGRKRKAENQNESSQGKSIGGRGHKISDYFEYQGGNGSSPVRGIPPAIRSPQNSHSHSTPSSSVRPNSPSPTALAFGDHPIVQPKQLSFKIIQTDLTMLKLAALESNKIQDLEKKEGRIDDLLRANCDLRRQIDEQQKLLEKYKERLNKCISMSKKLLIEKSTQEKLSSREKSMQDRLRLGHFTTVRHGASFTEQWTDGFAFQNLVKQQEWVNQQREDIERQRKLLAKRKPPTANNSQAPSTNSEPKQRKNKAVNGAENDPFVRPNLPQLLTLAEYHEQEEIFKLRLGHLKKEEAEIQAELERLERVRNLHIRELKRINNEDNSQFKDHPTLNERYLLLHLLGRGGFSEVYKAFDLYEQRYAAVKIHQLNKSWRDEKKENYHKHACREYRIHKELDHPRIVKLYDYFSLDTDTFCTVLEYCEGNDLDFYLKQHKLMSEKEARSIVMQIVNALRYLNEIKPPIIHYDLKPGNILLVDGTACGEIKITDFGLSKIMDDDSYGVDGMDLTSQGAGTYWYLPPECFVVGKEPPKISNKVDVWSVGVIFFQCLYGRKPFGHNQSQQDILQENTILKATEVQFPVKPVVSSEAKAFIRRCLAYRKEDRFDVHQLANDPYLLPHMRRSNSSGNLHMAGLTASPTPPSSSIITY
row,Structure (SMILES),Kd [µM]
1,CCOc1cc2ncc(C#N)c(Nc3ccc(F)c(Cl)c3)c2cc1NC(=O)/C=C/CN(C)C [PELITINIB],> 10
2,Oc1ccc(-c2nc(-c3ccncc3)c(-c3ccc(F)cc3)[nH]2)cc1 [SB-202190],> 10
3,COCC(=O)NC/C=C/c1ccc2ncnc(Nc3ccc(Oc4ccc(C)nc4)c(C)c3)c2c1 [CP-724714],> 10
4,NC(=O)c1ccc(-c2nc(-c3ccc4c(c3)OCO4)c(-c3ccccn3)[nH]2)cc1 [SB-431542],> 10

# Biological target: Tyrosine-protein kinase ABL1 (Homo sapiens, UniProt P00519, E255K)
row,Structure (SMILES),Kd [µM]
1,Oc1ccc(-c2nc(-c3ccncc3)c(-c3ccc(F)cc3)[nH]2)cc1 [SB-202190],> 10
2,COCC(=O)NC/C=C/c1ccc2ncnc(Nc3ccc(Oc4ccc(C)nc4)c(C)c3)c2c1 [CP-724714],> 10
3,NC(=O)c1ccc(-c2nc(-c3ccc4c(c3)OCO4)c(-c3ccccn3)[nH]2)cc1 [SB-431542],> 10

# Biological target: T2, Tyrosine-protein kinase ITK/TSK (Homo sapiens, UniProt Q08881)
# T2 sequence (Q08881 whole entry): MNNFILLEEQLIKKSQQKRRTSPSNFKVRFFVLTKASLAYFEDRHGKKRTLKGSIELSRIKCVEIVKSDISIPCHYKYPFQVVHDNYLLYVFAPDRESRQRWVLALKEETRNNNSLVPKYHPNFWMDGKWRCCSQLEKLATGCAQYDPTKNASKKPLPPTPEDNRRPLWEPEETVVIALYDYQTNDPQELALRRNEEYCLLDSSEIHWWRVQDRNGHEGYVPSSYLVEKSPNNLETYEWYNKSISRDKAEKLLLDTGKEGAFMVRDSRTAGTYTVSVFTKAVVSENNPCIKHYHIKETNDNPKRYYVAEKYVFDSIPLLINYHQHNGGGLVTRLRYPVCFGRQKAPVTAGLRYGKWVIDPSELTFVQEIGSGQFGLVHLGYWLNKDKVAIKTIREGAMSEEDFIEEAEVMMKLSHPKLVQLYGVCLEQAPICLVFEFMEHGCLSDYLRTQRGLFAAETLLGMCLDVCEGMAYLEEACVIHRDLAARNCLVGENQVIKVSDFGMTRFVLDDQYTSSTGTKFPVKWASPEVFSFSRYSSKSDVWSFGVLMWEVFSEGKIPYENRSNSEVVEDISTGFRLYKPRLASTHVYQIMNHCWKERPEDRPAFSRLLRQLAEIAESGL
row,Structure (SMILES),Kd [µM]
1,Nc1nc(Nc2ccc(S(N)(=O)=O)cc2)nn1C(=O)c1c(F)cccc1F [JNJ-7706621],> 10
2,Oc1ccc(-c2nc(-c3ccncc3)c(-c3ccc(F)cc3)[nH]2)cc1 [SB-202190],> 10
3,COCC(=O)NC/C=C/c1ccc2ncnc(Nc3ccc(Oc4ccc(C)nc4)c(C)c3)c2c1 [CP-724714],> 10
4,NC(=O)c1ccc(-c2nc(-c3ccc4c(c3)OCO4)c(-c3ccccn3)[nH]2)cc1 [SB-431542],> 10

# Biological target: T3, Ephrin type-B receptor 1 (Homo sapiens, UniProt P54762)
# T3 sequence (P54762 whole entry): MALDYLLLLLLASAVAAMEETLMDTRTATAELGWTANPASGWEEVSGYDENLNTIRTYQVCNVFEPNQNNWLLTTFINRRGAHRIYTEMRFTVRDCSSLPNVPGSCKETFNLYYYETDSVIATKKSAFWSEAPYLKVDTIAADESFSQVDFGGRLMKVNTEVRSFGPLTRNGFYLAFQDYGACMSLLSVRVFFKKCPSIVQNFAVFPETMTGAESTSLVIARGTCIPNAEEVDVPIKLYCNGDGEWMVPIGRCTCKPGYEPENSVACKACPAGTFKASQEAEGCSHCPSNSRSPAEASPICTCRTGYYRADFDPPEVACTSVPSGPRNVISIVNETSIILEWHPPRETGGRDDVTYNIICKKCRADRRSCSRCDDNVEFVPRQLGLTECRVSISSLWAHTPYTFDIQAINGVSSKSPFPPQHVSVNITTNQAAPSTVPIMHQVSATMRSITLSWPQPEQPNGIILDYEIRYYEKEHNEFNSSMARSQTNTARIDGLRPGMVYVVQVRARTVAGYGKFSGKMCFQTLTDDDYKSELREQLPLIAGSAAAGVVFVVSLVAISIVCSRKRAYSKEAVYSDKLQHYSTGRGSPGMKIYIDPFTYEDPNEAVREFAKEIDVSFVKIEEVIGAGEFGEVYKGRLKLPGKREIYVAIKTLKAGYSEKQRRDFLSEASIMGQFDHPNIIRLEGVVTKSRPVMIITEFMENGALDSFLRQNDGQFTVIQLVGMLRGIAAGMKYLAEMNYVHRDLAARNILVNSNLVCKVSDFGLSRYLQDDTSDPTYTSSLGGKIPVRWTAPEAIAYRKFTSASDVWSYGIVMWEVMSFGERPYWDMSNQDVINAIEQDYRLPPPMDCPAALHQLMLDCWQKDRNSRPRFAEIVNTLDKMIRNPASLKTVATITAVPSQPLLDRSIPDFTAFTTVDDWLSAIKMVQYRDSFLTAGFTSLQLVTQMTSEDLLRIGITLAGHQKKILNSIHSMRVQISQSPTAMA
row,Structure (SMILES),Kd [µM]
1,Nc1nc(Nc2ccc(S(N)(=O)=O)cc2)nn1C(=O)c1c(F)cccc1F [JNJ-7706621],> 10
2,Oc1ccc(-c2nc(-c3ccncc3)c(-c3ccc(F)cc3)[nH]2)cc1 [SB-202190],> 10
3,COCC(=O)NC/C=C/c1ccc2ncnc(Nc3ccc(Oc4ccc(C)nc4)c(C)c3)c2c1 [CP-724714],> 10
4,NC(=O)c1ccc(-c2nc(-c3ccc4c(c3)OCO4)c(-c3ccccn3)[nH]2)cc1 [SB-431542],> 10

# Biological target: AP2-associated protein kinase 1 (Homo sapiens, UniProt Q2M2I8)
# Sequence (Q2M2I8 whole entry): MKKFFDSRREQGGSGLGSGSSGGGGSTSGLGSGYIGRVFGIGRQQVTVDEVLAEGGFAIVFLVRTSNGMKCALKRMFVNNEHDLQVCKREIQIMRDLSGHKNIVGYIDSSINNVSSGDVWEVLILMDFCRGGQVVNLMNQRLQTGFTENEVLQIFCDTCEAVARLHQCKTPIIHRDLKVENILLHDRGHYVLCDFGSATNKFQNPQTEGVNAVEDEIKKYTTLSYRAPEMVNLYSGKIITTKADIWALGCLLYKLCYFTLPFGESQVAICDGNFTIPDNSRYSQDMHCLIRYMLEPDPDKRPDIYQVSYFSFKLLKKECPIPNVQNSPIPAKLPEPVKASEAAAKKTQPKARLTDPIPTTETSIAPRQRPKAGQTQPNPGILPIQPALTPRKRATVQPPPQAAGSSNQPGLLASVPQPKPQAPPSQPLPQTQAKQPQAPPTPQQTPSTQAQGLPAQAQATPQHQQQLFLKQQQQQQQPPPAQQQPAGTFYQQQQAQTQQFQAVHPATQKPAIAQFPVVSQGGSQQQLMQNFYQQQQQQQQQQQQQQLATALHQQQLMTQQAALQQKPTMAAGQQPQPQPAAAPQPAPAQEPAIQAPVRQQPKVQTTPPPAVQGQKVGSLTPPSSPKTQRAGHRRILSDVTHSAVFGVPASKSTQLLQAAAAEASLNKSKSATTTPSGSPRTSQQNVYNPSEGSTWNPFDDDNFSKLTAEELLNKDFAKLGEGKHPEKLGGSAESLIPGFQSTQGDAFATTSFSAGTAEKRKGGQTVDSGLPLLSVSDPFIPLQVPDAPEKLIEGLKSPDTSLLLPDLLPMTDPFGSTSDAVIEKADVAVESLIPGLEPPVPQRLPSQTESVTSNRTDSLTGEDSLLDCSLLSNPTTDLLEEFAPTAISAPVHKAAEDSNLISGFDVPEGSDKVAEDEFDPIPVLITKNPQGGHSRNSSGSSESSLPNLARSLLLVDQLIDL
row,Structure (SMILES),Kd [µM]
1,Oc1ccc(-c2nc(-c3ccncc3)c(-c3ccc(F)cc3)[nH]2)cc1 [SB-202190],> 10
2,COCC(=O)NC/C=C/c1ccc2ncnc(Nc3ccc(Oc4ccc(C)nc4)c(C)c3)c2c1 [CP-724714],> 10
3,NC(=O)c1ccc(-c2nc(-c3ccc4c(c3)OCO4)c(-c3ccccn3)[nH]2)cc1 [SB-431542],> 10

# Biological target: Phosphatidylinositol 4,5-bisphosphate 3-kinase catalytic subunit alpha isoform (Homo sapiens, UniProt P42336)
# Sequence (P42336 whole entry, canonical isoform): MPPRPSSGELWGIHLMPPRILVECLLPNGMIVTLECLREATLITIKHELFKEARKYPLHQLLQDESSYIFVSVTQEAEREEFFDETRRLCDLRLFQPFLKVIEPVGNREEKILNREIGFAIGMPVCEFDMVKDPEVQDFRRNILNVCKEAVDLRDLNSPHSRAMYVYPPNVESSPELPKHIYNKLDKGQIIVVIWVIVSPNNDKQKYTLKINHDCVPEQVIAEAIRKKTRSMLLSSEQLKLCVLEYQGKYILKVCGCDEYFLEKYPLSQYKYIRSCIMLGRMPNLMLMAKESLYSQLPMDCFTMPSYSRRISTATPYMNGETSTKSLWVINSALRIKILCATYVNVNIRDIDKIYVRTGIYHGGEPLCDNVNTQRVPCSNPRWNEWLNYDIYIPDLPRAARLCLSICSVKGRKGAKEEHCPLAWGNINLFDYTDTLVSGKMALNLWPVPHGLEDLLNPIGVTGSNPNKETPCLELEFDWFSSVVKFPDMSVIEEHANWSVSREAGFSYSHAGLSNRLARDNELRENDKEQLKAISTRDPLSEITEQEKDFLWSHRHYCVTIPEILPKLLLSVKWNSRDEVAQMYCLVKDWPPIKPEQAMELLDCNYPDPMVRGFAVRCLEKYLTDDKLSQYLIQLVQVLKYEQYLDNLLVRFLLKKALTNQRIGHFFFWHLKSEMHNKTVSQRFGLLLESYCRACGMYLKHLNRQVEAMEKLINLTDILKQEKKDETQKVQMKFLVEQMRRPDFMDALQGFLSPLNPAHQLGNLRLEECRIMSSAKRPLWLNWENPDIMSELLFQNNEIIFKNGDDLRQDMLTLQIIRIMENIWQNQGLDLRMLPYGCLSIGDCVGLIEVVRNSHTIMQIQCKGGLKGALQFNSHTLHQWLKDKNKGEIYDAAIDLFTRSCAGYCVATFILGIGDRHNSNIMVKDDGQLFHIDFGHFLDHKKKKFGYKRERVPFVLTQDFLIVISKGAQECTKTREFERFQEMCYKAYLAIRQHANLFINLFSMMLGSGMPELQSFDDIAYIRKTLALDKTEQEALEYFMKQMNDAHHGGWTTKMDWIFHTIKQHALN
row,Structure (SMILES),Kd [µM]
1,CCOc1cc2ncc(C#N)c(Nc3ccc(F)c(Cl)c3)c2cc1NC(=O)/C=C/CN(C)C [PELITINIB],> 10
2,Nc1nc(Nc2ccc(S(N)(=O)=O)cc2)nn1C(=O)c1c(F)cccc1F [JNJ-7706621],> 10
3,Oc1ccc(-c2nc(-c3ccncc3)c(-c3ccc(F)cc3)[nH]2)cc1 [SB-202190],> 10
4,NC(=O)c1ccc(-c2nc(-c3ccc4c(c3)OCO4)c(-c3ccccn3)[nH]2)cc1 [SB-431542],> 10

# Biological target: TRAF2 and NCK-interacting protein kinase (Homo sapiens, UniProt Q9UKE5)
# Sequence (Q9UKE5 whole entry): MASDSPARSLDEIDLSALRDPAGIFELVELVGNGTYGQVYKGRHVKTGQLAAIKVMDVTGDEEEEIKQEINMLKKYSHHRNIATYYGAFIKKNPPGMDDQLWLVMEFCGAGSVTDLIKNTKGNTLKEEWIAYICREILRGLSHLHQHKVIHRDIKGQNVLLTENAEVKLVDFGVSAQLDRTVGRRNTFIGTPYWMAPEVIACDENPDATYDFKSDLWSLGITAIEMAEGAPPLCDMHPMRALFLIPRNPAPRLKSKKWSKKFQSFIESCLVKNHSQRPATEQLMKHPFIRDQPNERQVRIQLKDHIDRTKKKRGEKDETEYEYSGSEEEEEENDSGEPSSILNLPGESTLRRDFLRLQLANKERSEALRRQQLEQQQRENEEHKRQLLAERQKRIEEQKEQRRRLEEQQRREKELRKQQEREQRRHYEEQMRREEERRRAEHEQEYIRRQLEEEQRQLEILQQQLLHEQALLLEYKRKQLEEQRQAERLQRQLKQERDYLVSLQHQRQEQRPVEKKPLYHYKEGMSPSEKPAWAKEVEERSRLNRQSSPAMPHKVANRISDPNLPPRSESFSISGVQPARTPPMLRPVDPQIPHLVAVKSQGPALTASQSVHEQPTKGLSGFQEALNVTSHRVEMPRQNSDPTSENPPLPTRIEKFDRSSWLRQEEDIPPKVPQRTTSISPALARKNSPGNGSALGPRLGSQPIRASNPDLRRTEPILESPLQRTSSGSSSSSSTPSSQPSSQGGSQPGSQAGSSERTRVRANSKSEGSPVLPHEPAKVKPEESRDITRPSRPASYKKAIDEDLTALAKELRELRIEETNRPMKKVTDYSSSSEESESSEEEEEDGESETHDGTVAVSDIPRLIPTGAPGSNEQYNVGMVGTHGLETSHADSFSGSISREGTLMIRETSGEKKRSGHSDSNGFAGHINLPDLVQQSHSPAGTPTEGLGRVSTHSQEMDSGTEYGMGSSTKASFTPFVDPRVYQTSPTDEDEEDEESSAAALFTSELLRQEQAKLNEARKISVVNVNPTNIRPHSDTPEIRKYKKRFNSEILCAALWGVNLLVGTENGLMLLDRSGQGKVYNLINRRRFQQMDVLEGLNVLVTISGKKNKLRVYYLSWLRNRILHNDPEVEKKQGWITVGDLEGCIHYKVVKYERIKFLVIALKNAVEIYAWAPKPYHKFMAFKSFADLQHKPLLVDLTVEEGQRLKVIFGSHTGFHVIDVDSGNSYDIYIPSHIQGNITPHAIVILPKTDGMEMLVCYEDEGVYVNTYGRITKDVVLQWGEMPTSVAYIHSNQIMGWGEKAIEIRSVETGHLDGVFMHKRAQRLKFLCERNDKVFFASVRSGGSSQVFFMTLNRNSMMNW
row,Structure (SMILES),Kd [µM]
1,Nc1nc(Nc2ccc(S(N)(=O)=O)cc2)nn1C(=O)c1c(F)cccc1F [JNJ-7706621],> 10
2,Oc1ccc(-c2nc(-c3ccncc3)c(-c3ccc(F)cc3)[nH]2)cc1 [SB-202190],1.6
3,COCC(=O)NC/C=C/c1ccc2ncnc(Nc3ccc(Oc4ccc(C)nc4)c(C)c3)c2c1 [CP-724714],> 10
4,NC(=O)c1ccc(-c2nc(-c3ccc4c(c3)OCO4)c(-c3ccccn3)[nH]2)cc1 [SB-431542],> 10

# Biological target: Ribosomal protein S6 kinase alpha-2 (Homo sapiens, UniProt Q15349)
# Sequence (Q15349 whole entry): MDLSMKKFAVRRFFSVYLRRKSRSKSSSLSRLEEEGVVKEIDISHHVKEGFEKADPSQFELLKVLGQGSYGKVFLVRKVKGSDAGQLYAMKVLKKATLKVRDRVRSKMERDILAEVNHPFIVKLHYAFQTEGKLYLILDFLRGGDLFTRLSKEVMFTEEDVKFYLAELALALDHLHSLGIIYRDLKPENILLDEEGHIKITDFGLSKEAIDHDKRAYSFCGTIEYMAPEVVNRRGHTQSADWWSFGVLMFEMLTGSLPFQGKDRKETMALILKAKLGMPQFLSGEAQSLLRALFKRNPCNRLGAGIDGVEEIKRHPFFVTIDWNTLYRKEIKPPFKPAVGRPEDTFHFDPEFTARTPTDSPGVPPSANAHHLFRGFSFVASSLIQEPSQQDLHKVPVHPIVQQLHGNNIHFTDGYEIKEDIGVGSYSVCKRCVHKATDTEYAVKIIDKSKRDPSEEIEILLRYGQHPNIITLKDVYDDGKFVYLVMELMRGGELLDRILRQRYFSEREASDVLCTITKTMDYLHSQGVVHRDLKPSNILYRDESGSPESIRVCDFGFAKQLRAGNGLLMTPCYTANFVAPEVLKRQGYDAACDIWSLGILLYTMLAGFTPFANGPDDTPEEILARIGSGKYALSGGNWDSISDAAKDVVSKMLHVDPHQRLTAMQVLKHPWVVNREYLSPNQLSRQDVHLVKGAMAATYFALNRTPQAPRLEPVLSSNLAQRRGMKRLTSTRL
row,Structure (SMILES),Kd [µM]
1,CCOc1cc2ncc(C#N)c(Nc3ccc(F)c(Cl)c3)c2cc1NC(=O)/C=C/CN(C)C [PELITINIB],8.7
2,Nc1nc(Nc2ccc(S(N)(=O)=O)cc2)nn1C(=O)c1c(F)cccc1F [JNJ-7706621],> 10
3,Oc1ccc(-c2nc(-c3ccncc3)c(-c3ccc(F)cc3)[nH]2)cc1 [SB-202190],> 10
4,COCC(=O)NC/C=C/c1ccc2ncnc(Nc3ccc(Oc4ccc(C)nc4)c(C)c3)c2c1 [CP-724714],> 10
5,NC(=O)c1ccc(-c2nc(-c3ccc4c(c3)OCO4)c(-c3ccccn3)[nH]2)cc1 [SB-431542],> 10
